Measured values: US20260167972A1, “AMINO ACID DERIVATIVES AS NOVEL DELIVERY AGENTS FOR FUNCTIONAL DELIVERY OF OLIGONUCLEOTIDES” (University of Rochester, priority 2022, published 2026)
Several values for one entry are separate records, joined by “and”; a condition that tells them apart may be missing. Equal entries are not always repeated.

Assays:
cells = assay: Delivery of fluorescent protein encoding mRNA and plasmid DNA into cells (FIG. 50); format: cell-based; details: 14 nM 1-Nap-Phe-DAP, 24 hours
Method: FIG. 50 has images of cells treated with a mixture of 1-Nap-Phe-DAP with fluorescent protein encoding mRNA (panel A) and plasmid DNA (panel B). […] In this example, 14 nM of the 1-Nap-Phe-DAP was used with 1 microgram of mRNA or pDNA for 24 hours, after which the cells were images.

[1] = Dynamic light scattering of N-X-Phe-DAP/siRNA nanoparticles; format: physicochemical; details: for Diameter (nm), DLS: N-X-Phe-DAP/siRNA nanoparticles, 5 μM derivative, 30 nM siRNA, ± standard deviation
Method: Each N-X-Phe-DAP derivative (100 μM) was mixed with siRNA (600 nM) in H2O for 30 minutes, followed by dilution of this mixture into DMEM cell culture media to final concentrations of 5 μM N-X-Phe-DAP derivative and 30 nM siRNA. Dynamic light scattering (DLS) and transmission electron microscopy (TEM) were utilized to analyze the physical characteristics of the resulting N-X-Phe-DAP/siRNA nanoparticles (Table 2, FIG. 4). […] Average diameter (nm), determined by dynamic light scattering (DLS) and TEM imaging, is reported as the average of […] with the error reported as the standard deviation of the mean. Binding affinity (Kd) of each agent to siRNA was determined by a slot blot filtration assay with values reported as the average of three measurements and error reported as the standard deviation of the mean. […] (B) Diameter (nm) determined by TEM (n=9, ***p≤0.001 ****p≤0.0001).
Dynamic Light Scattering: N-X-Phe-DAP derivatives (100 μM) were complexed with siRNA (600 nM) in Ultrapure™ DNase/RNase-Free Distilled Water (Invitrogen 10977015) and allowed to incubate for 30 minutes at room temperature. These solutions were then diluted into water to give final concentrations of 5 μM Phe derivative and 30 nM siRNA. Dynamic light scattering measurements were taken using a DynaPro Plate Reader II. Diameter is reported as an average of 10 measurements using Dynamics software.

A549 cells = assay: MTT cytotoxicity assay; format: cell-based, human; details: normalized to naïve control, ± SEM
Method: A549 cells were dosed with 100 µM of these derivatives for 4 h (FIG. 7A), 24 h (FIG. 7B), and 48 h (FIG. 7C). FIG. 7 reports cell viability as percent viability of A549 cells normalized to naïve control. (A) Cell viability after 4 h dosing (n=3, *p≤0.05, **p≤0.01). (B) Cell viability after 24 h dosing (n=3, *p≤0.05, **p≤0.01). (C) Cell viability after 48 h dosing (n=3, *p≤0.05, **p≤0.01, ****p≤0.0001). […] An MTT assay was performed after dosing for 4 h, 24 h, 48 h, or 4 h with media change and additional 48 h incubation. Average values are reported with calculated standard error of the mean (SEM).
The cells will also recover after exposure to N-X-Phe-DAP derivatives under conditions that resemble knockdown experiments. Cells were dosed with N-X-Phe-DAP derivatives or Lipofectamine for 4 hours, after which the media was aspirated and replaced with DMEM cell culture media and incubated for an additional 48 hours (FIG. 8). This protocol mimics the gene knockdown experiments and acts as a better indication of how cytotoxicity may impact gene silencing measurements.
Sample Preparation for Cell-Based Experiments: For delivery analysis and functional knockdown, N-X-Phe-DAP derivatives (10 μL, 1 mM) or Lipofectamine 3000 (6 μL) was mixed with TTF-1 siRNA (Santa Cruz Biotechnology sc-36756, 6 μL, 10 μM) in Ultrapure™ DNase/RNase-Free Distilled Water (Invitrogen 10977015) to give a final volume of 100 μL. These mixtures were incubated for 30 minutes at room temperature, followed by dilution into 1×DMEM (Gibco 11965092, 1.9 mL). For cytotoxicity assays, N-X-Phe-DAP derivatives (10 μL, 1 mM) were diluted into 1×DMEM (Gibco 11965092, 1.9 mL).
MTT Cytotoxicity Assay: All cytotoxicity assays were performed in triplicate. A549 cells were seeded at a density of 2400 cells/well in a 96-well plate (200 μL) and grown to 70-90% confluency. Cells were washed with 1×PBS (200 μL), N-X-Phe-DAP derivatives were added (200 μL/well), and incubated 4 h, 24 h, or 48 h at 37° C., 5% CO2 or for 4 h at 37° C., 5% CO2 followed by washing with 1×PBS and addition of complete media containing 1×DMEM (Gibco 11965092), 10% fetal bovine serum (FBS, Invitrogen 26140087), and 1× antibiotic-antimycotic (Gibco 15240-062). A solution of thiazoyl blue tetrazolium bromide (MTT, 1 mg/mL) was prepared in 1×DMEM devoid of phenol red (Invitrogen 31053028). After the appropriate incubation time, cells were washed with 1×PBS, dosed with MTT (200 μL), and incubated an additional 1 h at 37° C., 5% C02 in the dark. The 96-well plate was centrifuged for 5 min at 4000 rpm, the media was aspirated, and DMSO (100 μL) was added to the wells. Absorbance measurements (550 nm) were taken on a Tecan Infinite M1000 Pro plate reader. Cell viability was then calculated and normalized to the naïve control.

Diameter (nm), DLS [1] [nm]	diameter of siRNA nanoparticles by DLS and TEM measurements [1] [nm]	SMILES	delivery of fluorescent protein encoding mRNA into cells (cells; 1 microgram mRNA, FIG. 50 panel A)	delivery of plasmid DNA into cells (cells; 1 microgram pDNA, FIG. 50 panel B)	Cell Viability (%) 4 h Dosing (A549 cells) [%]	Cell Viability (%) 24 h Dosing (A549 cells) [%]	Cell Viability (%) 48 h Dosing (A549 cells) [%]	Cell Viability (%) Media Change After 4 h Followed by 48 h Incubation (A549 cells)	Cell Viability (%) 4 h Dosing (A549 cells; listed as Fmoc-Pyr-DAP)	Cell Viability (%) 24 h Dosing (A549 cells; listed as Fmoc-Pyr-DAP) [%]
221 ± 26		NCCCNC(=O)[C@H](Cc1ccccc1)NC(=O)Cc1cccc2ccccc12 [1-Nap-Phe-DAP]	fluorescence visible in the cytosol	fluorescence visible in the cytosol	65.3 ± 3.7	69.5 ± 5.9	45.1 ± 3.1	56.5 ± 1.1%		
416 ± 33		NCCCNC(=O)[C@H](Cc1ccccc1)NC(=O)Cc1ccc2ccccc2c1 [2-Nap-Phe-DAP]			50.4 ± 1.5	58.3 ± 6.0	44.3 ± 8.7	60.7 ± 1.6%		
94 ± 14	~100	NCCCNC(=O)[C@H](Cc1ccccc1)NC(=O)OCc1ccccc1 [Cbz-Phe-DAP]			60.8 ± 3.8	69.8 ± 8.2	53.7 ± 3.0	50.2 ± 3.4%		
125 ± 74	~100	NCCCNC(=O)[C@H](Cc1ccccc1)NC(=O)C1CCCCC1 [Cyc-Phe-DAP]			58.3 ± 9.2	59.6 ± 4.9	60.4 ± 2.6	67% and 66.5 ± 5.1%		
139 ± 14		NCCCNC(=O)[C@H](Cc1ccccc1)NC(=O)CC1c2ccccc2-c2ccccc21 [Fm-Phe-DAP]			60.7 ± 3.6	51.7 ± 4.4	26.7 ± 4.0	72.6 ± 7.4%		
228 ± 18		NCCCNC(=O)[C@H](Cc1cccc(F)c1)NC(=O)OCC1c2ccccc2-c2ccccc21 [Fmoc-3F-Phe-DAP]			59.9 ± 3.8	75.3 ± 5.0	42.0 ± 2.4	71.1 ± 6.3%		
202 ± 15		NCCCNC(=O)[C@H](Cc1c(F)c(F)c(F)c(F)c1F)NC(=O)OCC1c2ccccc2-c2ccccc21 [Fmoc-F5-Phe-DAP]			48.1 ± 5.9			54.2 ± 6.2%		
156 ± 13		NCCCNC(=O)[C@H](Cc1ccccc1)NC(=O)OCC1c2ccccc2-c2ccccc21 [Fmoc-Phe-DAP]			76.3 ± 2.8	96.5 ± 3.2	63.7 ± 5.1	76.1 ± 4.9%		
50 ± 6		CCCCCCC(=O)N[C@@H](Cc1ccccc1)C(=O)NCCCN [Hex-Phe-DAP]			38.9 ± 3.7	66.0 ± 5.5	52.1 ± 4.5	53% and 53.1 ± 4.5%		
105 ± 8		NCCCNC(=O)[C@H](Cc1ccccc1)NC(=O)CCCc1ccc2ccc3cccc4ccc1c2c34 [Pyr-Phe-DAP]			17.2 ± 1.1	2.6 ± 0.8		22.3 ± 2.7%	less than 20%	< 3
